In PMC10318132, “Synthesis and activity study of novel N,N-diphenylurea derivatives as IDO1 inhibitors” (Frontiers in Chemistry, 2023):

Key:
IDO1 = target: T1, IDO1 (Homo sapiens, UniProt P14902); assay: Hela cell-based functional assay of IDO1 inhibition (kynurenine read at 480 nm); details: Hela cells, 100 ng/mL human IFN-γ, 18 h; averages ±SD of two parallel experiments
T1 construct: host or cells: HeLa cells stimulated with 100 ng/mL human IFN-γ
Procedure: Based on a comprehensive review of the literature, we employed a Hela cell-based functional assay to investigate the IDO1 inhibition activities of the designed compounds.
To assess the inhibitory effect of the designed compounds against IDO1, Hela cells were seeded at 50,000–60,000 cells per well in 100 μL of complete Dulbecco’s modified eagle medium growth medium in a 96-well plate and incubated for 12–18 h. On the second day, diluted inhibitor at a final concentration of 100 ng/mL human IFN-γ was added (100 μL per well) and incubated at 37°C with 5% CO2 for 18 h. On the third day, 140 μL of medium was transferred into a new 96-well plate, and the protein was precipitated with 10 μL of 6.1 N trichloroacetic acid (CCl3COOH) at 50°C for 30 min. The plate was then centrifuged at 2,500 rpm for 10 min, and 100 μL of supernatant was transferred to another 96-well plate and mixed with 100 μL of 2% (w/v) p-dimethylaminobenzaldehyde in CH3COOH. The plate was incubated at 25°C for 10 min, and the yellow color derived from kynurenine was measured at 480 nm using a microplate reader (PE, United States). Inhibition curves with IC50 values were generated using Prism 6.0.

[1] = test system: melanin-concentrating hormone; set-up: method as in McBriar et al., 2006; details: melanin-concentrating hormone antagonist; ref McBriar et al., 2006; cited from earlier work
Staphylococcus aureus = test system: Staphylococcus aureus; set-up: method as in Babu et al., 2015; details: ref Babu et al., 2015; cited from earlier work
pancreatic cancer cells = test system: pancreatic cancer cells; set-up: method as in Khanet al.; details: ref Khanet al.; cited from earlier work
[2] = test system: laryngeal squamous carcinoma cells; set-up: method as in Khanet al.; details: ref Khanet al.; cited from earlier work
HIV-1 protease = test system: HIV-1 protease; set-up: method as in The Lipton laboratory; details: ref The Lipton laboratory; cited from earlier work

T1 sequence (P14902 whole entry): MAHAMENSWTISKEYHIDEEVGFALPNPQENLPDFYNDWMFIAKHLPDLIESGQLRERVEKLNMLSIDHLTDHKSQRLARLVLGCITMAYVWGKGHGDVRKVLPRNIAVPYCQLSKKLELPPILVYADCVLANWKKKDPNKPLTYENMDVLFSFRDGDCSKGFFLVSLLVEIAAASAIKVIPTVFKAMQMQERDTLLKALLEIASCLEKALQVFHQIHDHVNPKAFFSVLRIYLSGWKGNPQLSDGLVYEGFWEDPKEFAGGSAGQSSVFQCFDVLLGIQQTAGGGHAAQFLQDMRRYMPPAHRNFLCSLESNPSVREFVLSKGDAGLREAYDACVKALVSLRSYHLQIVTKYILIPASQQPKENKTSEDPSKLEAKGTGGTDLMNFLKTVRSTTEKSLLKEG

| SMILES | IC50 (IDO1) [µM] | other results |
| --- | --- | --- |
| Cc1ccc(-c2csc3nnc(SCC(=O)Nc4ccc5c(c4)OCO5)n23)cc1 [Amg-1, reference compound] | 3.97 | – |
| COc1ccc(NC(=O)NCc2cn(Cc3ccccc3Br)nn2)cc1 [Compound 3a, 1-((1-(2-bromobenzyl) -1H-1,2,3-triazol-4-yl)methyl) -3-(4-methoxyphenyl) urea] | > 20 | – |
| O=C(NCc1cn(Cc2ccccc2Br)nn1)Nc1ccc(Br)cc1 [Compound 3d, 1-((1-(2-bromobenzyl) -1H-1,2,3-triazol-4-yl)methyl) -3-(4-bromophenyl) urea] | > 20 | – |
| O=C(NCc1cn(Cc2cccc(Br)c2)nn1)Nc1ccc(Br)cc1 [Compound 3e, 1-((1-(3-bromobenzyl) -1H-1,2,3-triazol-4-yl)methyl) -3-(4-bromophenyl) urea] | > 20 | – |
| COc1ccc(NC(=O)NC(C)(C)c2cn(Cc3ccccc3Br)nn2)cc1 [Compound 3f, 1-(2-(1-(2-bromobenzyl)-1H-1,2,3-triazol-4-yl)propan-2-yl)-3-(4-methoxyphenyl)urea] | 17.9 ± 3.14 | – |
| COc1ccc(NC(=O)NC(C)(C)c2cn(Cc3cccc(Br)c3)nn2)cc1 [Compound 3g, 1-(2-(1-(3-bromobenzyl)-1H-1,2,3-triazol-4-yl)propan-2-yl)-3-(4-methoxyphenyl)urea] | 1.73 ± 0.97 | – |
| COc1ccc(NC(=O)NC(C)(C)c2cn(Cc3cccc(OC)c3)nn2)cc1 [Compound 3h, 1-(2-(1-(3-methoxybenzyl)-1H-1,2,3-triazol-4-yl)propan-2-yl)-3-(4-methoxyphenyl)urea] | 5.82 ± 2.65 | – |
| CC(C)(NC(=O)Nc1ccc(Br)cc1)c1cn(Cc2ccccc2Br)nn1 [Compound 3i, 1-(2-(1-(2-bromobenzyl)-1H-1,2,3-triazol-4-yl)propan-2-yl)-3-(4-bromophenyl)urea] | > 20 | – |
| CC(C)(NC(=O)Nc1ccc(Br)cc1)c1cn(Cc2cccc(Br)c2)nn1 [Compound 3j, 1-(2-(1-(3-bromobenzyl)-1H-1,2,3-triazol-4-yl)propan-2-yl)-3-(4-bromophenyl)urea] | > 20 | – |
| CN1CCN(CCCN(C(=O)Nc2ccc(F)c(C(F)(F)F)c2)[C@@H]2CC[C@]3(c4ccc(C#N)cc4)C[C@H]23)CC1 [Compound 7] | – | effect on body weight [1]: effective in reducing body weight |
| O=C(Nc1ccc(F)c(C(F)(F)F)c1)N1CCN(c2ncc3cc(-c4cccnc4F)ccc3n2)CC1 [Compound 8] | – | inhibitory effect on the proliferation of Staphylococcus aureus (Staphylococcus aureus): excellent inhibitory effect |
| CNc1ccccc1C(=O)NC(=O)Nc1ccc(Oc2ncc(Br)cn2)c(C)c1 [Compound 9] | – | repression of pancreatic cancer cells (pancreatic cancer cells): effectively repress; repression of laryngeal squamous carcinoma cells [2]: effectively repress |
| COC(=O)C(NC(=O)C(NC(=O)C(Cc1ccccc1)NC(=O)NC(Cc1ccccc1)NC(=O)C(C)NC(=O)C(C)N)C(C)C)C(C)C (centres unmarked) [Compound 10] | – | inhibitory effect on HIV-1 protease (HIV-1 protease): moderate inhibitory effect |
